Measurements taken from the supplement of paper PMC10307832.

Columns and labels:
Test in all cases: relative viability (nuclei count vs DMSO), 5 days (fraction); higher = more cells survive
[1] = compound: CC1=C(C(=O)N2C=CSC2=N1)CCN3CCC(=C(C4=CC=CC=C4)C5=CC=C(C=C5)F)CC3 + COc1cccc2cc(-c3nc([C@H]4CC[C@H](C(=O)O)CC4)n4ncnc(N)c34)[nH]c12 [OSI-027] (partner 0.5 µM)
Procedure, shortened: (§1)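 The day after seeding in 1536-well plates, lung cancer cell lines were treated by pin tool with a single drug, or with a fixed anchor-drug dose together with five library-drug doses (not always all listed) in √10 steps. After 5 days, a combined fix-and-stain solution (final 0.05% Triton X-100, 1% formaldehyde, 1 ug/ml Hoechst) was added. Nuclei counted on 4× images gave relative viability as treated counts over vehicle counts, reported as the median of duplicate plates.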

[2] = compound: CC1=C(C(=O)N2C=CSC2=N1)CCN3CCC(=C(C4=CC=CC=C4)C5=CC=C(C=C5)F)CC3 + CC(=O)Nc1cccc(-n2c(=O)n(C3CC3)c(=O)c3c(Nc4ccc(I)cc4F)n(C)c(=O)c(C)c32)c1 [Trametinib] (partner 0.02 µM)
Procedure, shortened: as §1

[3] = compound: CC1=C(C(=O)N2C=CSC2=N1)CCN3CCC(=C(C4=CC=CC=C4)C5=CC=C(C=C5)F)CC3 + N=C(N)NC(=N)NCCc1ccccc1 [Phenformin] (partner 250 µM)
Procedure, shortened: as §1

[4] = compound: CC1=C(C(=O)N2C=CSC2=N1)CCN3CCC(=C(C4=CC=CC=C4)C5=CC=C(C=C5)F)CC3 + C[C@@H](Oc1cc(-c2cnn(C3CCNCC3)c2)cnc1N)c1c(Cl)ccc(F)c1Cl [Crizotinib] (partner 1 µM)
Procedure, shortened: as §1

Cell Line | relative viability ([1]; first compound 0.08 µM) | relative viability ([1]; first compound 0.253 µM) | relative viability ([1]; first compound 0.8 µM) | relative viability ([1]; first compound 2.53 µM) | relative viability ([1]; first compound 8 µM) | relative viability ([2]; first compound 0.08 µM) | relative viability ([2]; first compound 0.253 µM) | relative viability ([2]; first compound 0.8 µM) | relative viability ([2]; first compound 2.53 µM) | relative viability ([2]; first compound 8 µM) | relative viability ([3]; first compound 0.08 µM) | relative viability ([3]; first compound 0.253 µM) | relative viability ([3]; first compound 0.8 µM) | relative viability ([3]; first compound 2.53 µM) | relative viability ([3]; first compound 8 µM) | relative viability ([4]; first compound 0.08 µM) | relative viability ([4]; first compound 0.253 µM) | relative viability ([4]; first compound 0.8 µM) | relative viability ([4]; first compound 2.53 µM) | relative viability ([4]; first compound 8 µM)
NCI-H23 | 0.572 | 0.517 | 0.482 | 0.738 | 0.399 | 0.38 | 0.343 | 0.387 | 0.368 | 0.22 | 0.757 | 0.668 | 0.782 | 0.773 | 0.564 | 0.467 | 0.505 | 0.454 | 0.372 | 0.404
NCI-H322M | 0.522 | 0.509 | 0.547 | 0.596 | 0.442 | 0.478 | 0.424 | 0.558 | 0.604 | 0.469 | 0.745 | 0.785 | 0.737 | 0.773 | 0.873 | 0.732 | 0.948 | 0.878 | 0.696 | 0.834
NCI-H358 | 0.681 | 0.666 | 0.666 | 1.13 | 0.469 | 0.12 | 0.121 | 0.127 | 0.133 | 0.136 | 0.344 | 0.361 | 0.361 | 0.379 | 0.243 | 0.455 | 0.327 | 0.413 | 0.548 | 0.609
NCI-H441 | 0.505 | 0.582 | 0.576 | 0.754 | 0.416 | 0.423 | 0.404 | 0.445 | 0.541 | 0.372 | 0.797 | 0.759 | 0.918 | 0.737 | 0.667 |  | 0.866 | 0.773 | 0.872 | 0.549
NCI-H460 | 0.951 | 0.633 | 0.605 | 0.712 | 0.191 | 0.129 | 0.132 | 0.129 | 0.124 | 0.129 | 0.474 | 0.562 | 0.611 | 0.548 | 0.113 | 0.597 | 1.16 | 1.09 | 0.794 | 0.188
NCI-H520 | 0.251 | 0.247 | 0.251 | 0.212 | 0.233 | 0.712 | 0.625 | 0.631 | 0.778 | 0.393 | 0.784 | 0.643 | 0.836 | 0.539 | 0.468 | 0.679 | 0.608 | 0.858 | 0.58 | 0.476
NCI-H596 | 0.668 | 0.788 | 0.746 | 0.827 | 0.41 | 0.703 | 0.815 | 0.913 | 0.863 | 0.708 | 0.702 | 0.826 | 0.915 | 0.74 | 0.578 | 1.01 | 1.13 | 0.957 | 1.03 | 0.949
NCI-H647 | 0.581 | 0.66 | 0.652 | 0.72 | 0.316 | 0.388 | 0.609 | 0.541 | 0.612 | 0.249 | 0.573 | 0.644 | 0.54 | 0.438 | 0.348 | 1.09 | 1.61 | 1.01 | 1.34 | 0.476
